From US4714619A, “Aminomalonyl alanine compounds as dietary sweeteners” (priority 1986, dated 1987)
Entries after “also recorded” stand apart in the source; their conditions may differ. Read-outs that look alike come from different tables or passages of the source.

Legend:
[1] = Taste panel (Table 1, FIG. 2); settings: for After Taste? (average score) / Bitter? (average score) / Off Taste? (average score) / Pleasant? (average score) / Salty? (average score) / Sweet? (average score): normalized to 100
[2] = Acute oral toxicity testing; assay type: in vivo, Swiss male mice
Protocol: The isopropyl ester was evaluated for acute oral toxicity in Swiss male mice. The testing parameters were as follows: each test group contained six mice (20-30 grams each); the isopropyl ester was administered in an aqueous solution as a single oral dose of 100 mg/kg and 300 mg/kg; two solvent controls were also administered; the mice were again given food two hours after sample administration.
Body weights were measured on day -3, 0, +7 and +14. Physiological parameters were examined the entire first day, then three times a day through the first week and twice a day for the second week. Blood serum analyses for urea nitrogen and alanine aminotransferase activities were measured on day -3 and day +14. On day 14, a gross necropsy was performed on each mouse.
Blood samples were collected from the tail vein for biochemical testing of serum samples. This procedure virtually eliminated hemolyzed samples.

five Salmonella strains = test: Ames/Salmonella mutagenicity assay; assay type: cell-based; settings: 0.3-3000 ug/plate, with and without S9; toxicity at the two highest doses
Protocol: The isopropyl ester was tested for mutuagenic potential in the Ames assay employing: (1) five Salmonella strains which detect frameshift mutagens or base-pair substitution mutagens, (2) both the presence and absence of mammalian S9 microsomal liver fraction as the metabolic activator, which differentiate promutagens from direct-acting mutagens, (3) five dose levels (3000, 300, 30, 3, 0.3 ug/plate), and (4) three plates per dose. The compound was also tested for toxicity, with and without S9 activation, at the two highest doses. […] Positive controls and spontaneous background revertants were within acceptable ranges.

[3] = Comparative taste test, D- versus L-configuration (Table 2, FIG. 3); parameters: Sweet? (average score) / Bitter? (average score) / Salty? (average score) / Off Taste? (average score) / After Taste? (average score): scale not given here
Protocol: The compounds were dissolved in distilled water at the concentrations specified in Table 2. Solutions were made up and kept overnight in a refrigerator. The following day, they were poured into individual graduated plastic cups (10 ml per cup) and allowed to warm to room temperature. A taste panel was convened and testing begun that same day. Tasting and evaluation was done by the standard protocol developed by Dr. Robert Gesteland of Taste and Smell Consulting Group, Inc.
The first solution tasted (reference standard for the panel) was 0.25M sucrose. Other solutions were tasted in radomized fashion. The random order was arrived at as follows:
i. An ordered list of the compounds and concentrations was prepared (26 solutions in all).
ii. 0.25M sucrose was designated as 1.
iii. A standard table of random numbers was used in which the numbers were grouped as two-digit numbers. A point in the table was chosen at random (blind pointing). The first solution in the list was given the first random number in the sequence (read right-to-left, up-to-down) which is between 2 and 26. The second solution in the list was given the next random number in the sequence between 2 and 26, etc. Repeat numbers were ignored.
iv. Solutions were then labeled A (for number 1) B (for random number 2), C-Z.
v. Panelists were instructed to taste the solutions in alphabetical order.
With the assistance of Taste and Smell Consulting Group, Inc., taste panel members were trained adn tested for their ability to discriminate sucrose solutions of varying concentrations. In summary it may be stated that all 9 panel members had acceptble correlation scores. Their results were in good agreement with those which have been previously reported in siilar types of studies. For the test series the correlations for each panelist for sucrose and aspartame were acceptable as were the overall results obtained by averaging individual scores. The results of the taste panel are set forth in Table 2 wherein the parenthetical figures represent the standard error values for the number above.

[4] = Stability in aqueous solution (hplc, ambient temperature); assay type: physicochemical; settings: for degraded at 864 h: 0.05m phosphate buffer, ambient temperature, read-out: degradation
Protocol: Stability was examined in aqueous solution at various pHs. Solutions (1% w/v) were prepared in 0.05M phosphate buffer adjusted to pH 7.4 and pH 3.5. Storage at ambient temperature over 36 days was monitored by hplc analysis (waters radial-pak reverse phase C-8 column, 25% CH3 CN, 0.05% TFA/H2 O eluant, 210 nm U.V. detection). Aspartame was examined similarly for comparison purposes.

[5] = neonatal mice; cited from earlier work
[6] = cited from earlier work
[7] = monkeys; cited from earlier work
[8] = single oral dose 100 and 300 mg/kg, 14 days

CC(C)OC(=O)[C@@H](C)NC(=O)C(N)C(=O)O (mixture of isomers) [Compound (8), DL-Aminomalonyl-D-Alanine Isopropyl Ester]
After Taste? (average score) ([1]; 0.8621 Millimolar): 4 | Bitter? (average score) ([1]; 0.8621 Millimolar): 7 | Off Taste? (average score) ([1]; 0.8621 Millimolar): 13 | Pleasant? (average score) ([1]; 0.8621 Millimolar): -11 | Salty? (average score) ([1]; 0.8621 Millimolar): 21 | Sweet? (average score) ([1]; 0.8621 Millimolar): 4 | After Taste? (average score) ([1]; 3.0172 Millimolar): 6 | Bitter? (average score) ([1]; 3.0172 Millimolar): 3 | Off Taste? (average score) ([1]; 3.0172 Millimolar): 2 | Pleasant? (average score) ([1]; 3.0172 Millimolar): 13 | Salty? (average score) ([1]; 3.0172 Millimolar): 5 | Sweet? (average score) ([1]; 3.0172 Millimolar): 32 | After Taste? (average score) ([1]; 9.0517 Millimolar): 4 | Bitter? (average score) ([1]; 9.0517 Millimolar): 1 | Off Taste? (average score) ([1]; 9.0517 Millimolar): 3 | Pleasant? (average score) ([1]; 9.0517 Millimolar): 34 | Salty? (average score) ([1]; 9.0517 Millimolar): 3 | Sweet? (average score) ([1]; 9.0517 Millimolar): 61 | aftertaste / side tastes ([1]; compared to saccharin): does not possess a "metallic" aftertaste, and there are virtually no detracting side tastes | sweetness potency (reciprocal of concentration required for a score of 50) ([1]; sucrose=1.0, weight scale): 58 | onset and decay of sweet taste ([1]; taste panel): rapid onset and a rapid decay of sweet taste | taste quality ([1]; taste panel): uncommon sucrose-like sweet taste that is free of detracting side and after tastes; also recorded: sweet and pleasant | sweetness relative to aspartame ([1]; weight basis): about half as sweet as aspartame | times sweeter than sucrose ([1]; weight basis): 58 times | gross necropsy ([2]; day 14, 100 and 300 mg/kg oral): No toxic effects were detected | kidney and liver toxicity ([2]; from serum urea nitrogen and alanine aminotransferase, 100 and 300 mg/kg oral): absence of kidney and liver toxicity | serum urea nitrogen and alanine aminotransferase activity ([2]; post-study samples, 100 or 300 mg/kg oral): Neither elevated serum urea nitrogen nor elevated alanine aminotransferase activity were detected | behavioral or pharmacological effects ([2]; single oral dose 100 and 300 mg/kg): no behavioral or pharmacological effects were observed | body weights ([2]; single oral dose 100 and 300 mg/kg, 14-day study): normal | acute oral toxicity [2, 8]: no toxic effect; also recorded: nontoxic at all doses tested | eating or drinking [2, 8]: no excessive eating or drinking | mutagenic potential and toxicity in Ames assay (five Salmonella strains): neither mutagenic potential nor toxicity | sweet taste (words) [3]: sweet | After Taste? (average score) ([3]; 0.0431 Millimolar): 0 | Bitter? (average score) ([3]; 0.0431 Millimolar): 1 | Off Taste? (average score) ([3]; 0.0431 Millimolar): 2 | Pleasant? (average score) ([3]; 0.0431 Millimolar): 15 | Salty? (average score) ([3]; 0.0431 Millimolar): 1 | Sweet? (average score) ([3]; 0.0431 Millimolar): 2 | After Taste? (average score) ([3]; 0.4307 Millimolar): 7 | Bitter? (average score) ([3]; 0.4307 Millimolar): 12 | Off Taste? (average score) ([3]; 0.4307 Millimolar): 8 | Pleasant? (average score) ([3]; 0.4307 Millimolar): 10 | Salty? (average score) ([3]; 0.4307 Millimolar): 11 | Sweet? (average score) ([3]; 0.4307 Millimolar): 1 | After Taste? (average score) ([3]; 4.3066 Millimolar): 5 | Bitter? (average score) ([3]; 4.3066 Millimolar): 0 | Off Taste? (average score) ([3]; 4.3066 Millimolar): 3 | Pleasant? (average score) ([3]; 4.3066 Millimolar): 24 | Salty? (average score) ([3]; 4.3066 Millimolar): 12 | Sweet? (average score) ([3]; 4.3066 Millimolar): 28 | degraded at 864 h ([4]; pH 3.5, 36 days): < 5% | degraded at 864 h ([4]; pH 7.4 buffer, 36 days): 70% | improvement in stability relative to aspartame ([4]; pH 3.5, 36 days): ten fold improvement in stability

N[C@@H](CC(=O)O)C(=O)O [aspartic acid]
brain lesions [5]: causes brain lesions in neonatal mice

N[C@@H](Cc1ccccc1)C(=O)O [phenylalanine]
behavioral changes and brain chemistry ([6]; in vivo): induce behavioral changes, and alter brain chemistry | birth defects ([6]; pregnant women with phenylketonuria): produce birth defects in pregnant women with phenylketonuria | grand mal-type seizures [7]: reported to induce grand mal-type seizures in monkeys
